pEC50: −log10 of the molar value.
Biological target: α1β2γ2 GABAA receptor (Homo sapiens (Human), UniProt P14867+P47870)
Test: Patch clamp electrophysiology of recombinant α1β2γ2 GABAA receptors in LTK cells
Assay type: cell-based
Settings: for activity at 10 µM / α1β2γ2 GABA Qpatch in Ltk (Efficacy at 10 μm): 10 μM compound, Qpatch, Ltk cells, GABA EC20 2 μM; for activity at 10 µM: read-out: α1β2γ2 GABA Qpatch in Ltk (Efficacy at 10 μm)
Experimental: Cellular electrophysiology is used to measure the pharmacological properties of our GABAA receptor modulators in heterologous cell systems. Each compound is tested for its ability to affect GABA mediated currents at a submaximal agonist dose (GABA EC20=2 μM). LTK cells are stably transfected with the α1β2γ2 subunits of the GABA receptor and CHO cells are transiently transfected with the α4β3δ subunits via the Lipofecatamine method. Cells were passaged at a confluence of about 50-80% and then seeded onto 35 mm sterile culture dishes containing 2 ml culture complete medium without antibiotics or antimycotics. Confluent clusters of cells are electrically coupled (Pritchett et al., 1988). Because responses in distant cells are not adequately voltage clamped and because of uncertainties about the extent of coupling (Verdoorn et al., 1990), cells were cultivated at a density that enables the recording of single cells (without visible connections to other cells).
Whole cell currents were measured with HEKA EPC-10 amplifiers using PatchMaster software or by using the high throughput QPatch platform (Sophion). Bath solution for all experiments contained (in mM): NaCl 137 mM, KCl 4 mM, CaCl2 1.8 mM, MgCl2 1 mM, HEPES 10 mM, D-Glucose 10 mM, pH (NaOH) 7.4. In some cases 0.005% cremophor was also added. Intracellular (pipette) solution contained: KCl 130 mM, MgCl2 1 mM, Mg-ATP 5 mM, HEPES 10 mM, EGTA 5 mM, pH 7.2. During experiments, cells and solutions were maintained at room temperature (19° C.-30° C.). For manual patch clamp recordings, cell culture dishes were placed on the dish holder of the microscope and continuously perfused (1 ml/min) with bath solution. After formation of a Gigaohm seal between the patch electrodes and the cell (pipette resistance range: 2.5 MΩ-6.0 MΩ; seal resistance range: >1 GΩ) the cell membrane across the pipette tip was ruptured to assure electrical access to the cell interior (whole-cell patch-configuration). For experiments using the QPatch system, cells were transferred as suspension to the QPatch system in the bath solution and automated whole cell recordings were performed.
Cells were voltage clamped at a holding potential of −80 mV. For the analysis of test articles, GABA receptors were stimulated by 2 μM GABA after sequential pre-incubation of increasing concentrations of the test article. Pre-incubation duration was 30 s and the duration of the GABA stimulus was 2 s. Test articles were dissolved in DMSO to form stock solutions (10 mM). Test articles were diluted to 0.01, 0.1, 1, and 10 μM in bath solution. All concentrations of test articles were tested on each cell. The relative percentage potentiation was defined as the peak amplitude in response to GABA EC20 in the presence of the test article divided by the peak amplitude in response to GABA EC20 alone, multiplied by 100.

SMILES	activity at 10 µM (LTK)	also measured
C[C@@]1(O)CC[C@H]2[C@H](CC[C@@H]3[C@@H]2CC[C@]2(C)[C@@H](C(=O)Cn4ncc5cc(F)ccc54)CC[C@@H]32)C1 [SA-17]	100 to 500%	
CC[C@@]1(O)CC[C@H]2[C@@H](CC[C@@H]3[C@@H]2CC[C@]2(C)[C@@H](C(=O)Cn4nc5ccccc5n4)CC[C@@H]32)C1 [SB-36]	100 to 500%	
C[C@]12CC[C@H]3[C@@H](CC[C@@H]4C[C@@](O)(C(F)F)CC[C@@H]43)[C@@H]1CC[C@@H]2C(=O)Cn1nnc2cnccc21 [SA-96]	100 to 500%	
C[C@@]1(O)CC[C@H]2[C@H](CC[C@@H]3[C@@H]2CC[C@]2(C)[C@@H](C(=O)Cn4nnc5ccc(Cl)cc54)CC[C@@H]32)C1 [SA-39]	100 to 500%	
CC[C@@]1(O)CC[C@H]2[C@H](CC[C@@H]3[C@@H]2CC[C@]2(C)[C@@H](C(=O)Cn4nnc5ccncc54)CC[C@@H]32)C1 [SA-113]	100 to 500%	
COC[C@@]1(O)CC[C@H]2[C@H](CC[C@@H]3[C@@H]2CC[C@]2(C)[C@@H](C(=O)Cn4nnc5ccncc54)CC[C@@H]32)C1 [SA-124]	100 to 500%	
COC[C@@]1(O)CC[C@H]2[C@H](CC[C@@H]3[C@@H]2CC[C@]2(C)[C@@H](C(=O)Cn4nc5ccc(F)cc5n4)CC[C@@H]32)C1 [SA-122]	100 to 500%	
C[C@@]1(O)CC[C@H]2[C@@H](CC[C@@H]3[C@@H]2CC[C@]2(C)[C@@H](C(=O)Cn4nnc5ccccc54)CC[C@@H]32)C1 [SB-1]	100 to 500%	
C[C@@]1(O)CC[C@H]2[C@H](CC[C@@H]3[C@@H]2CC[C@]2(C)[C@@H](C(=O)Cn4ncc5cncnc54)CC[C@@H]32)C1 [SA-36]	> 500%	
C[C@]12CC[C@H]3[C@@H](CC[C@H]4C[C@@](O)(CF)CC[C@@H]43)[C@@H]1CC[C@@H]2C(=O)Cn1cc2ncccc2n1 [SB-16]	100 to 500%	
C[C@@]1(O)CC[C@H]2[C@H](CC[C@@H]3[C@@H]2CC[C@]2(C)[C@@H](C(=O)Cn4nnc5c(Cl)cccc54)CC[C@@H]32)C1 [SA-76]	> 500%	
C[C@@]1(O)CC[C@H]2[C@@H](CC[C@@H]3[C@@H]2CC[C@]2(C)[C@@H](C(=O)Cn4ncc5ccncc54)CC[C@@H]32)C1 [SB-10]		α1β2γ2 GABA Qpatch in Ltk (Efficacy at 10 μm): B (“B” indicates an efficacy value of >100-500%)
CC[C@@]1(O)CC[C@H]2[C@@H](CC[C@@H]3[C@@H]2CC[C@]2(C)[C@@H](C(=O)Cn4ncc5ncccc54)CC[C@@H]32)C1 [SB-30]	100 to 500%	
Cn1c(CC(=O)[C@H]2CC[C@H]3[C@@H]4CC[C@@H]5C[C@](C)(O)CC[C@@H]5[C@H]4CC[C@]23C)nc2ccccc21 [SA-105]	> 500%	
C[C@@]1(O)CC[C@H]2[C@H](CC[C@@H]3[C@@H]2CC[C@]2(C)[C@@H](C(=O)Cn4ncc5cccnc54)CC[C@@H]32)C1 [SA-19]		α1β2γ2 GABA Qpatch in Ltk (Efficacy at 10 μm): B (“B” indicates an efficacy value of >100-500%); Emax (LTK, potentiation of GABA EC20 (2 μM) current, read-out: GABAa alpha1 (α1β2γ2) Emax (%)): 500 to 1000%; pEC50 (potentiation of GABA EC20 (2 μM) current, read-out: GABAa alpha1 (α1β2γ2)EC50): < 5.70
C[C@]12CC[C@H]3[C@@H](CC[C@H]4C[C@@](O)(CF)CC[C@@H]43)[C@@H]1CC[C@@H]2C(=O)Cn1ncc2ccncc21 [SB-19]	100 to 500%	
C[C@@]1(O)CC[C@H]2[C@H](CC[C@@H]3[C@@H]2CC[C@]2(C)[C@@H](C(=O)Cn4ncc5cc(C#N)ccc54)CC[C@@H]32)C1 [SA-38]	> 500%	
C[C@@]1(O)CC[C@H]2[C@H](CC[C@@H]3[C@@H]2CC[C@]2(C)[C@@H](C(=O)Cn4nnc5ncc(Cl)cc54)CC[C@@H]32)C1 [SA-56]	100 to 500%	
C[C@@]1(O)CC[C@H]2[C@H](CC[C@@H]3[C@@H]2CC[C@]2(C)[C@@H](C(=O)Cn4nc5ccc(F)cc5n4)CC[C@@H]32)C1 [SA-62]	100 to 500%	
C[C@]12CC[C@H]3[C@@H](CC[C@H]4C[C@@](O)(CF)CC[C@@H]43)[C@@H]1CC[C@@H]2C(=O)Cn1nc2ccccc2n1 [SB-13]	100 to 500%	
C[C@]12CC[C@H]3[C@@H](CC[C@@H]4C[C@@](O)(C(F)F)CC[C@@H]43)[C@@H]1CC[C@@H]2C(=O)Cn1cc2ccncc2n1 [SA-99]	> 500%	

Reference: US11261211B2, “19-NOR neuroactive steroids and methods of use thereof” (Sage Therapeutics, Inc., priority 2013, dated 2022)
